# Laboratory results published in KR20210134284A, “분갈 추출물 또는 이로부터 유래된 화합물을 포함하는 피부 개선용 조성물” (주식회사 엘지생활건강, priority 2018, dated 2020).
# What was measured:
# [1] = Anti-glycation activity using L-arginine and glucose; conditions: 70℃, 4 h, 420 nm
# [2] = system: RAW264.7 cells, NO production (생쥐의 대식세포인 RAW264.7 세포); test: NO production inhibition by GRIESS method in LPS-stimulated RAW264.7 cells (anti-inflammatory); type: cell-based; conditions: Mus musculus, LPS 1 μg, 24 h, read-out: NO production inhibition rate
# [3] = DPPH free radical scavenging (antioxidant); conditions: 37℃, 30 min, 520 nm, concentration removing 50% of free radicals
# [4] = system: type Ⅰ collagen synthesis in human-derived fibroblasts (제1형 콜라겐; 인간 유래 섬유 아세포); test: Type I collagen synthesis promotion in human fibroblasts (PICP EIA kit); type: cell-based; conditions: 48 h; for type I collagen production amount: negative control 150.2 ng/ml
# [5] = system: B-16 mouse melanoma cell (쥐의 멜라노마 세포); test: Melanin production inhibition (whitening), absorbance at 400 nm; type: cell-based; conditions: 72 h, 3 days, relative to control, read-out: total melanin inhibition rate
# [6] = Homo sapiens, Fibroblast, 10 ppm, relative to control, read-out: collagen production increase rate
SMILES,IC50 [3] [%w/v],glycation inhibition rate ([1]; 10 ppm) [%],inhibition at 10 ppm [5] [%],type I collagen production amount ([4]; 10 ppm) [ng/mL],"activation at 10 ppm [4, 6] [%]",also measured
"N=C(N)NN [Aminoguanidine, reference compound]",,,,,,glycation inhibition rate ([1]; 55 ppm): 48.12%
"CNC(=N)NCCC[C@H](N)C(=O)O [L-NMMA, L-NG-monomethylarginine, reference compound]",,,,,,inhibition at 10 ppm [2]: 30.6%
"O=C1O[C@H]([C@@H](O)CO)C(O)=C1O [비타민C, reference compound]",0.0005,,,,,"type I collagen production amount ([4]; 50 ppm): 210.9 ng/mL; activation at 50 ppm ([4]; Homo sapiens, Fibroblast, 50 ppm, relative to control, read-out: collagen production increase rate): 40.4%"
"OC[C@H]1O[C@@H](Oc2ccc(O)cc2)[C@H](O)[C@@H](O)[C@@H]1O [알부틴, arbutin, reference compound]",,,,,,inhibition at 100 ppm ([5]; 100 ppm): 47.8%
"COc1c(O[C@@H]2O[C@H](CO[C@@H]3OC[C@@H](O)[C@H](O)[C@H]3O)[C@@H](O)[C@H](O)[C@H]2O)cc2occ(-c3ccc(O)cc3)c(=O)c2c1O [화합물 1, tectorigenin 7-O-xylosylglucoside]",0.0015,41.67,48.3,202.3,34.7,inhibition at 100 ppm [2]: 99.5%
"COc1c(O[C@@H]2O[C@H](CO)[C@@H](O)[C@H](O)[C@H]2O)cc2occ(-c3ccc(O)cc3)c(=O)c2c1O [화합물 2, tectoridin]",0.0024,38.95,63.1,221.9,47.7,inhibition at 100 ppm [2]: 99.5%
"COc1c(O)cc2occ(-c3ccc(O)cc3)c(=O)c2c1O [화합물 3, tectorigenin]",0.0012,34.75,32.7,208.1,38.5,inhibition at 10 ppm [2]: 51.9%
